According to patent publication US20240252464A1, “A SELF-EMULSIFYING DRUG DELIVERY FORMULATION WITH IMPROVED ORAL BIOAVAILABILITY OF LIPOPHILIC COMPOUND” (Avantsar Sdn Bhd, priority 2022, published 2024):

Settings: rat, in vivo
Procedure: Non self-emulsifying tocotrienol oily suspension was prepared by mixing tocotrienols rich fraction (TRF) and palm olein at a ratio of 1:1. The total tocotrienol administered per rat was equivalent to 10 mg/kg body weight. The single dose of ketoconazole (suspension in water) was administered at a dose of 32 mg/kg body weight.
The rats were fasted overnight for at least 12 hours before the study. During Phase 1, the rats in Group 1 were given only the tocotrienol oily suspension while Group 2 were given a single dose of ketoconazole half an hour prior to administration of tocotrienol. Phase 2 was carried out after 1 week of wash-out period. Blood samples were taken from the tail vein according to the following predetermined sampling interval. The blood levels of individual tocotrienol isomers at each time point was analysed using HPLC assay.

Increase in bioavailability compared with Control, Alpha-tocotrienol: 2.1-fold | Increase in bioavailability compared with Control, Delta-tocotrienol: 2.6-fold | Increase in bioavailability compared with Control, Gamma-tocotrienol: 3.0-fold | Enhancement of bioavailability of tocotrienols compared to without ketoconazole (po): 2-3 folds
Structure (SMILES): CC(=O)N1CCN(c2ccc(OCC3COC(Cn4ccnc4)(c4ccc(Cl)cc4Cl)O3)cc2)CC1 (stereo not shown) [Ketoconazole, ketoconazole]
